What was measured:
Format in all cases: cell-based, human
RPMI-8226 = assay: NCI drug screen, RPMI-8226; details: RPMI-8226 (Leukemia); 1.00E−5 Molar
Procedure: (§1) In brief, cellular protein levels were determined after 48 hours of drug exposure by sulforhodamine B colorimetry. Through the use of a time 0 cell control, the cell growth can be determined for each cell line thus allowing calculations of the 50% growth inhibitory concentration (GI50), the total growth inhibition (TGI), and the 50% lethal concentration (LC50). Comparison to plates not exposed to drug permits determination of concentration and times of exposure conferring 50% net growth inhibition (GI50), TGI, and 50% cell kill (LC50).
(§2) The screening system in United State National Cancer Institute (NCI) is consisted of 60 kinds of different human cancer cells, which can be used to assay the growth-inhibiting ability or cell toxicity of a compound against various cancer and tumor at a certain concentration.

OVCAR-8 = assay: NCI drug screen, OVCAR-8; details: OVCAR-8 (Ovarian Cancer); 1.00E−5 Molar
Procedure: as §1, §2

MALME-3M = assay: NCI drug screen, MALME-3M; details: MALME-3M (Melanoma); 1.00E−5 Molar
Procedure: as §1, §2

OVCAR-4 = assay: NCI drug screen, OVCAR-4; details: OVCAR-4 (Ovarian Cancer); 1.00E−5 Molar
Procedure: as §1, §2

SK-MEL-5 = assay: NCI drug screen, SK-MEL-5; details: SK-MEL-5 (Melanoma); 1.00E−5 Molar
Procedure: as §1, §2

HOP-92 = assay: NCI drug screen, HOP-92; details: HOP-92 (Non-Small Cell Lung Cancer); 1.00E−5 Molar
Procedure: as §1, §2

MDA-MB-435 = assay: NCI drug screen, MDA-MB-435; details: MDA-MB-435 (Melanoma); 1.00E−5 Molar
Procedure: as §1, §2

H1299 = assay: MTT assay, PhTERT-SEAP (H1299); details: H1299; SEAP and MTT analysis
Procedure, shortened: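 Cultured cells received MTT for 4 h at 37 °C, then lysis buffer overnight at 37 °C. Optical density was read at 550 nm.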

Cc1ccc(C(=O)Nc2ccc3c(c2NC(=O)c2ccc(C)cc2)C(=O)c2ccccc2C3=O)cc1 [CC-04, 1,2-bis-(4-methylbenzamido)-anthraquinone]
Growth Percent (RPMI-8226): 101.77% | Growth Percent (OVCAR-8): 85.43% | Growth Percent (MALME-3M): 127.16% | Growth Percent (OVCAR-4): 104.32% | Growth Percent (SK-MEL-5): 94.04% | Growth Percent (HOP-92): 91.21%

Cc1ccc(C(=O)Nc2c(NC(=O)CCl)ccc3c2C(=O)c2ccccc2C3=O)cc1 [CC-12, 1-(4-methylbenzamido)-2-(chloroacetamido)-anthraquinone]
Growth Percent (OVCAR-8): 8.72% | Growth Percent (MALME-3M): −22.41% | Growth Percent (OVCAR-4): 34.52% | Growth Percent (SK-MEL-5): −98.72% | Growth Percent (HOP-92): −68.77% | Growth Percent (MDA-MB-435): 4.82%

O=C(CCl)Nc1ccc2c(c1NC(=O)Cc1ccccc1)C(=O)c1ccccc1C2=O [CC-23, 1-[2-(phenyl)acetylamino]-2-(chloroacetamido)-anthraquinone]
Growth Percent (MALME-3M): 47.07% | Growth Percent (OVCAR-4): 80.40% | Growth Percent (SK-MEL-5): 51.32% | Growth Percent (HOP-92): 73.63% | Growth Percent (MDA-MB-435): 80.40%

Cc1ccc(C(=O)Nc2c(NC(=O)CN3CCCC3)ccc3c2C(=O)c2ccccc2C3=O)cc1 [CC-38, 1-(4-methylbenzamido)-2-[2-(tetrahydro-1H-1-pyrrolyl)acetylamino]-anthra quinone]
Growth Percent (OVCAR-8): 65.02% | Growth Percent (MALME-3M): 82.24% | Growth Percent (OVCAR-4): 47.06% | Growth Percent (SK-MEL-5): 61.74% | Growth Percent (HOP-92): 59.33% | Growth Percent (MDA-MB-435): 79.14%

Cc1ccc(C(=O)Nc2c(NC(=O)CN3CCN(C)CC3)ccc3c2C(=O)c2ccccc2C3=O)cc1 [CC-43, 1-(4-methylbenzamido)-2-[2-(4-methylpiperazino)acetylamino]-anthraquinone]
Growth Percent (OVCAR-8): 46.43% | Growth Percent (MALME-3M): 10.84% | Growth Percent (OVCAR-4): 57.11% | Growth Percent (SK-MEL-5): 41.30% | Growth Percent (HOP-92): 90.68% | inhibitory activity among compounds CC-35 to CC-50 (H1299): higher inhibitory activity | Growth Percent (MDA-MB-435): 11.15%

Reference: patent US8530465B2, “1, 2-disubstituted amido-anthraquinone derivatives, preparation method and application thereof” (National Defense Medical Center, priority 2010, dated 2013)
